Measured values: patent US20220315578A1, “BRD9 BIFUNCTIONAL DEGRADERS AND THEIR METHODS OF USE” (NOVARTIS AG, priority 2019, published 2022)

Target: T1, BRD9-GFP (Homo sapiens, UniProt Q9H8M2)
T1 construct: CHYSEL (2A cis-acting hydrolase element) remnant after GFP; mCherry is split off as a separate protein (C); expressed in transfected cells; host or cells: HEK293A cells (Invitrogen R70507), lentiviral transduction with pLenti6-BRD9-GFP-CHYSEL-mCherry, blasticidin selection
T1 sequence (Q9H8M2 1-597): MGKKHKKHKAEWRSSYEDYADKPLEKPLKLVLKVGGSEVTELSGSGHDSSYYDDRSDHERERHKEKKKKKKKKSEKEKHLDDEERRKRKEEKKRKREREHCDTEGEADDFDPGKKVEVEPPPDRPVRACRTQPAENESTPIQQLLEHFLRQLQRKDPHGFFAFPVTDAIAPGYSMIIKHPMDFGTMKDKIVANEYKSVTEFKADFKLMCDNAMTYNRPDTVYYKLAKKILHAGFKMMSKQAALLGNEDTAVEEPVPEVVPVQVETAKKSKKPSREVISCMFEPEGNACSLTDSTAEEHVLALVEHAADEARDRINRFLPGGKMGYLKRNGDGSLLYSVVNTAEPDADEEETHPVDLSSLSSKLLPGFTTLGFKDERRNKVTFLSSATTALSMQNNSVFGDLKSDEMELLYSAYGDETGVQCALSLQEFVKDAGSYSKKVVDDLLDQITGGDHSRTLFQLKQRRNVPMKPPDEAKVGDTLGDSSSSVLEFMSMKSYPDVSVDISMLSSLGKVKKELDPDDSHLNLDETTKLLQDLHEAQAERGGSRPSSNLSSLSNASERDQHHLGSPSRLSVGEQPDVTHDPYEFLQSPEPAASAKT
Assay: BRD9-GFP protein abundance flow cytometry assay in HEK293A cells
Type: cell-based
Settings: HEK293A-BRD9-GFP-CHYSEL-mCherry cells; for BRD9 Deg Amax %: 24 h, % protein remaining at the concentration at which maximum degradation is seen; for DC50: 24 h at 37° C., 10-point 1:3 dilution, concentration at which 50% maximal degradation was observed
Experimental: Compounds of the invention were tested in the following cellular assays. The terms in Table 1 are defined as follows: DC50 refers to the concentration at which 50% maximal degradation was observed; deg Amax is the extent of degradation and the value refers to the % protein remaining at the concentration at which maximum degradation is seen.
BRD9-GFP protein abundance flow cytometry assay in HEK293A cells: Degradation of BRD9 was measured in HEK293A cells expressing BRD9-GFP and mCherry from a stably integrated second generation bicistronic BRD9-GFP-CHYSELmCherry construct. Reduction of the GFP signal measured by flow cytometry served as readout for BRD9 degradation after degrader treatment.
The bicistronic BRD9-GFP-CHYSEL-mCherry construct is based on a pLenti6-DEST vector backbone where a GFP-CHYSEL-mCherry cassette was synthesized and inserted downstream of the DEST cassette by Gibson assembly resulting in the new gateway compatible vector pLenti6-DEST-GFP-CHYSEL-mCherry to allow Gateway cloning with pENTR221-BRD9 (w/o ATG) to obtain the final sensor construct pLenti6-BRD9-GFP-CHYSEL-mCherry.
HEK293 Å-BRD9-GFP-CHYSEL-mCherry sensor cells were generated by lentiviral vector transduction using the pLenti6-BRD9-GFP-CHYSEL-mCherry sensor construct described before. […] The mix was incubated for another 20 min at RT and then added to 1 ml of a freshly prepared suspension of HEK293FT cells in a well of a 6-well plate (concentration 1.2×10^6 cells/ml). 1 day after transfection, the medium was replaced with 1.5 ml of complete growth medium (DMEM high Glucose+10% FCS+1% L-Glutamine+1% NEAA+1% NaPyr.). 48 h post transfection supernatant containing viral transducing particles was collected and frozen at −80° C. […] Infection was performed with […] of collected supernatant containing viral transducing particles in 1 ml medium including 8 μg/ml polybrene. 24 h post infection, stably transfected cells were selected with blasticidin at a concentration of 8 μg/ml.
Stable HEK293 Å-BRD9-GFP-CHYSEL-mCherry cells were maintained in complete growth medium (DMEM high Glucose+10% FCS+1% L-Glutamine+1% NEAA+1% NaPyr.) with passaging performed twice per week. On Day 0, HEK293 Å-BRD9-GFP-CHYSEL-mCherry cells were seeded at 10,000 cells/well in a 96-well microtiter plate in […] complete medium. On Day 1, cells were treated in duplicate with 10-point 1:3 dilution series of compound using the HP D300 Digital Dispenser (Tecan). DMSO concentrations were normalized across the plate to 0.1%. On Day 2, after 24 h of incubation at 37° C., treatment media was discarded, cells rinsed with 100 ul/well PBS and then detached using 40 ul trypsin/well for 5 min. Trypsin was neutralized with 100 ul/well PBS+20% FCS). Flow cytometry was performed on the samples using the Beckman Coulter CytoFLEX flow cytometer. Cell identification was then performed using forward (FSC) vs. side scatter (SSC) plots. Single cell discrimination is performed using FSC-Width (FSC-W) vs. FSC-Height (FSC-H) plots. Median GFP/mCherry ratio values for 5,000 single cells are used to determine BRD9 levels. Median GFP/mCherry ratio values from HEK293 Å-mCherry are used as a background signal and thus defining 0% BRD9 signal. Median GFP/mCherry ratio values from DMSO treated HEK293 Å-BRD9-GFP-CHYSEL-mCherry are used to define 100% BRD9 signal for subsequent DC50 curves (concentration at 50% BRD9 degradation). Concentration response curves plotting relative reduction of the GFP/mCherry ratio signal (measured by flow cytometry) versus 10 compound concentrations (starting concentration […], 3 fold dilution steps) of the compounds allowed generation of DC50 values. Data is shown in Tables 2 and 3, in which, DC50 refers to the concentration at which 50% maximal degradation was observed; deg Amax is the extent of degradation and the value refers to the % protein remaining at the concentration at which maximum degradation is seen.

COc1ccc(C(=O)N2CCC(OC3CCN(Cc4c(OC)cc(-c5cc(C)c(=O)n(C)c5)cc4OC)CC3)CC2)cc1N1CCC(=O)NC1=O [Compound A1]
BRD9 Deg Amax %: 10.72%
DC50: 54 nM

COc1cc(-c2cc(C)c(=O)n(C)c2)ccc1C(=O)N1CCC(OC2CCN(C(=O)c3ccc(OC)c(N4CCC(=O)NC4=O)c3)CC2)CC1 [Compound A2, 1-(5-(4-((1-(4-(1,5-Dimethyl-6-oxo-1,6-dihydropyridin-3-yl)-2-methoxybenzoyl)piperidin-4-yl)oxy)piperidine-1-carbonyl)-2-methoxyphenyl)dihydropyrimidine-2,4(1H,3H)-dione]
BRD9 Deg Amax %: 13.39%
DC50: 63 nM

COc1cc(-c2cc(C)c(=O)n(C)c2)ccc1C(=O)N1CCN(CC2CCN(C(=O)c3ccc(OC)c(N4CCC(=O)NC4=O)c3)CC2)CC1 [Compound A3, 1-(5-(4-((4-(4-(1,5-Dimethyl-6-oxo-1,6-dihydropyridin-3-yl)-2-methoxybenzoyl)piperazin-1-yl)methyl)piperidine-1-carbonyl)-2-methoxyphenyl)dihydropyrimidine-24(1H,3H)-dione]
BRD9 Deg Amax %: 12.29%
DC50: 68 nM

COc1cc(-c2cn(C)c(=O)c3cnccc23)ccc1OC1CCN(CC2CCN(C(=O)c3ccc(OC)c(N4CCC(=O)NC4=O)c3)CC2)CC1 [Compound A4, 1-(2-Methoxy-5-(4-((4-(2-methoxy-4-(2-methyl-1-oxo-1,2-dihydro-2,7-naphthyridin-4-yl)phenoxy)piperidin-1-yl)methyl)piperidine-1-carbonyl)phenyl)dihydropyrimidine-2,4(1H,3H)-dione]
BRD9 Deg Amax %: 14.01%
DC50: 4 nM

COc1cc(-c2cn(C)c(=O)c3cnccc23)ccc1OCC1CCN(CC2CCN(C(=O)c3ccc(OC)c(N4CCC(=O)NC4=O)c3)CC2)CC1 [Compound A5, 1-(2-Methoxy-5-(4-((4-((2-methoxy-4-(2-methyl-1-oxo-1,2-dihydro-2,7-naphthyridin-4-yl)phenoxy)methyl)piperidin-1-yl)methyl)piperidine-1-carbonyl)phenyl)dihydropyrimidine-2,4(1H,3H)-dione]
BRD9 Deg Amax %: 18.64%
DC50: 19 nM

COc1ccc(C(=O)N2CCC(CN3CCC(Oc4c(OC)cc(-c5cn(C)c(=O)c6cnccc56)cc4OC)CC3)CC2)cc1N1CCC(=O)NC1=O [Compound A6, 1-(5-(4-((4-(2,6-Dimethoxy-4-(2-methyl-1-oxo-1,2-dihydro-2,7-naphthyridin-4-yl)phenoxy)piperidin-1-yl)methyl)piperidine-1-carbonyl)-2-methoxyphenyl)dihydropyrimidine-2,4(1H,3H)-dione]
BRD9 Deg Amax %: 12.25%
DC50: 3 nM

COc1cc(-c2cc(C)c(=O)n(C)c2)c(OC)cc1CN1CCC(OC2CCN(C(=O)COc3ccc(N4CCC(=O)NC4=O)cc3)CC2)CC1 [Compound A7, 1-(4-(2-(4-((1-(4-(1,5-Dimethyl-6-oxo-1,6-dihydropyridin-3-yl)-2,5-dimethoxybenzyl)piperidin-4-yl)oxy)piperidin-1-yl)-2-oxoethoxy)phenyl)dihydropyrimidine-2,4(1H,3H)-dione]
BRD9 Deg Amax %: 21.30%
DC50: 60 nM

COc1cc(-c2cc(C)c(=O)n(C)c2)cc(OC)c1CN1CCC(OC2CCN(C(=O)COc3ccc(N4CCC(=O)NC4=O)cc3)CC2)CC1 [Compound A8, 1-(4-(2-(4-((1-(4-(1,5-Dimethyl-6-oxo-1,6-dihydropyridin-3-yl)-2,6-dimethoxybenzyl)piperidin-4-yl)oxy)piperidin-1-yl)-2-oxoethoxy)phenyl)dihydropyrimidine-2,4(1H,3H)-dione]
BRD9 Deg Amax %: 16.25%
DC50: 70 nM

COc1cc(-c2cn(C)c(=O)c3cnccc23)cc(OC)c1OC1CCN(CC2CCN(C(=O)c3ccc(Cl)c(N4CCC(=O)NC4=O)c3)CC2)CC1 [Compound A9, 1-(2-Chloro-5-(4-((4-(2,6-dimethoxy-4-(2-methyl-1-oxo-1,2-dihydro-2,7-naphthyridin-4-yl)phenoxy)piperidin-1-yl)methyl)piperidine-1-carbonyl)phenyl)dihydropyrimidine-2,4(1H,3H)-dione]
BRD9 Deg Amax %: 20.62%
DC50: 2 nM

COc1cc(-c2cn(C)c(=O)c3cnccc23)ccc1OC1CCN(CC2CCN(C(=O)c3ccc(Cl)c(N4CCC(=O)NC4=O)c3)CC2)CC1 [Compound A10, 1-(2-Chloro-5-(4-((4-(2-methoxy-4-(2-methyl-1-oxo-1,2-dihydro-2,7-naphthyridin-4-yl)phenoxy)piperidin-1-yl)methyl)piperidine-1-carbonyl)phenyl)dihydropyrimidine-2,4(1H,3H)-dione]
BRD9 Deg Amax %: 18.93%
DC50: 2 nM

COc1cc(-c2cn(C)c(=O)c3cnccc23)ccc1OC1CCN(CC2CCN(C(=O)c3cccc(N4CCC(=O)NC4=O)c3)CC2)CC1 [Compound A11, 1-(3-(4-((4-(2-Methoxy-4-(2-methyl-1-oxo-1,2-dihydro-2,7-naphthyridin-4-yl)phenoxy)piperidin-1-yl)methyl)piperidine-1-carbonyl)phenyl)dihydropyrimidine-2,4(1H,3H)-dione]
BRD9 Deg Amax %: 19.45%
DC50: 12 nM

COc1ccc(C(=O)N2CCC(CN3CCC(Oc4ccc(-c5cn(C)c(=O)c6cnccc56)cc4)CC3)CC2)cc1N1CCC(=O)NC1=O [Compound A12, 1-(2-Methoxy-5-(4-((4-(4-(2-methyl-1-oxo-1,2-dihydro-2,7-naphthyridin-4-yl)phenoxy)piperidin-1-yl)methyl)piperidine-1-carbonyl)phenyl)dihydropyrimidine-2,4(1H,3H)-dione]
BRD9 Deg Amax %: 13.46%
DC50: 2 nM

COc1cc(-c2cn(C)c(=O)c(C)c2C)ccc1CN1CCN(CC2CCN(C(=O)c3ccc(OC)c(N4CCC(=O)NC4=O)c3)CC2)CC1 [Compound A13, 1-(2-Methoxy-5-(4-((4-(2-methoxy-4-(1,4,5-trimethyl-6-oxo-1,6-dihydropyridin-3-yl)benzyl)piperazin-1-yl)methyl)piperidine-1-carbonyl)phenyl)dihydropyrimidine-2,4(1H,3H)-dione]
BRD9 Deg Amax %: 18.05%
DC50: 15 nM
